In the test the target is T1, Anoctamin 1 (ANO1) (Homo sapiens, UniProt Q5XXA6).
T1 construct: ANO1 stably expressed in FRT cells
T1 sequence (Q5XXA6 1-986): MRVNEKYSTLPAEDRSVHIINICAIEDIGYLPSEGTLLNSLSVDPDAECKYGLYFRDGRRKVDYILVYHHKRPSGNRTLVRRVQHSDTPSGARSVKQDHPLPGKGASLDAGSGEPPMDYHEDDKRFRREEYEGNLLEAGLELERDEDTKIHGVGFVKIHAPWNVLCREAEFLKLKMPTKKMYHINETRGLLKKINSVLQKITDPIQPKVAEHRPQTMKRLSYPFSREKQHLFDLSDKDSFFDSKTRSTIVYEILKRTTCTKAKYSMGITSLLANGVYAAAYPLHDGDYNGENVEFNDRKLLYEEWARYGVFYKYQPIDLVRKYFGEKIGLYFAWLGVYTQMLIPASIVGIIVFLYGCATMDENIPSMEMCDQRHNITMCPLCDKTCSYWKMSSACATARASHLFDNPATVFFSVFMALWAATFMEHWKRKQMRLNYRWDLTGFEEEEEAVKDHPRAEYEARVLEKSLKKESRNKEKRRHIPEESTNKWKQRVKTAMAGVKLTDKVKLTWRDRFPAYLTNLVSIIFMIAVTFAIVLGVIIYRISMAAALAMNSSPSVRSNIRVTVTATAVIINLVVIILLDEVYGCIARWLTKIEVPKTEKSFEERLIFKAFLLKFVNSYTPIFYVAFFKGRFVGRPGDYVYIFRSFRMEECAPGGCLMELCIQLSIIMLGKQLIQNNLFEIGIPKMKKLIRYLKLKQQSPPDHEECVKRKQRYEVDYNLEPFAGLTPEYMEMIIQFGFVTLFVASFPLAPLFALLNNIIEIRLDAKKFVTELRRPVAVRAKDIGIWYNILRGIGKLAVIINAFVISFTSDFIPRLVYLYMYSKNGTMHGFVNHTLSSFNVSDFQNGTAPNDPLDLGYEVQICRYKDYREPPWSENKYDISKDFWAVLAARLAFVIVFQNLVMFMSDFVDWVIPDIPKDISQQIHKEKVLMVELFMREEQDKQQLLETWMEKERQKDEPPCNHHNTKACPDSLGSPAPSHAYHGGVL
As to the kind of experiment: YFP fluorescence quenching (iodide influx) assay in FRT cells expressing ANO1 and YFP. It is filed as cell-based.

The structures appear in SMILES notation.

Here are results for one compound from article PMC10232832, “ANO1-downregulation induced by schisandrathera D: a novel therapeutic target for the treatment of prostate and oral cancers” (Frontiers in Pharmacology, 2023).

For `COc1cc(C[C@@H](C)[C@@H](C)Cc2cc(O)c(OC)c(OC)c2)cc(O)c1OC` [compound 11, schisandrathera D], it took 5.24 µM to reach half-maximal inhibition (IC50). This counts as single-digit micromolar.

For orientation: IC50 means the concentration needed to halve the response being measured. A high value points to weaker potency.
